What all share (type): in vivo
The test system of one assay is C. difficile ATCC 9689. The experiment in a line: Weight gain of mice after C. difficile challenge. To be noted: oral 10 mg/kg once, 24 and 48 hours after 1×10^5 cfu or 72 hours after 1×10^6 cfu challenge; FIG. 3. Here is the method:
In another study with the mice of Example 2, a cationic cholesterol additive was administered to determine changes in weight gain. The compound was administered orally @10/mg/kg once, 24 and 48 hours after C. difficile ATCC 9689 challenge at 1×10^5 cfu (or CFU) or 72 hours after challenge with 1×10^6 cfu (or CFU) (Day 0). The results are illustrated in the graph of FIG. 3.

Assay [1] can be described thus: Confined animal feed operation study of chickens, additive in drinking water. The following applies: for Harvest weight / Weight gain: day one through day 35, CSA-44 5 ppm in drinking water, control tetracycline in feed; for Death loss: in vivo. The method, then: A study of 50,000 birds performed in 2 groups of 25,000 birds was performed on a confined animal feed operation. The following cationic cholesterol additive (CSA-44) was added to animal drinking water:
The additive was prepared in drinking water at a concentration of 5 ppm. The dry feed administered to the chickens contained no antibiotic.
A control group of birds was delivered tetracycline in animal feed according to conventional practices.
The cationic cholesterol additive was given from day one through day 35.

The next assay concerns C. difficile. Description: LD50 C. difficile challenge model, survival of mice. The following applies: administered 24 hours after C. difficile challenge; Day 0, Day 3, Day 10; versus control mice; FIG. 5. Here is the method:
The mice of Example 2 were also evaluated for decreased morbidity in an LD50 C. difficile challenge model. The cationic cholesterol compound was administered 24 hours after C. difficile challenge (“Tx 24 Hr.”). FIG. 4 illustrates the steps used in performing the study.

Assay [2] concerns Lactobacillus bacteria (LAB). The experiment in a line: Lactobacillus bacteria (LAB) concentration in ileum, cecum and colon of mice after oral CSA-44. To be noted: 10 mg/kg oral gastric lavage, 12 and 24 hours post Tx. Here is the method: To evaluate the effectiveness of cationic cholesterol compounds on GI microbiota, the following compound (CSA-44) was administered oraly by gastric lavage to mice at 10 mg/kg:
To determine the health improvements caused by the cationic cholesterol compound, the concentration (cfu/mL) of Lactobacillus bacteria (LAB) (beneficial flora) in the ileum, cecum, and colon was determined at 12 and 24 hours. The LAB concentration was compared to control mice.
As illustrated in the graphs of FIGS. 1 and 2, the cationic cholesterol compound appears to have a significant “sparing” effect on beneficial Lactobacillus bacteria (LAB) flora (log values on y-axis) in the ileum, cecum and colon (on x-axis) when compared to control mice at 12 and 24 hours after being given CSA-44 (“post Tx”), resulting in almost a 2 log increase in LAB concentration in all 3 segments of the intestine when compared to control mice. This increase in LAB concentration flora is a surprising and unexpected result.

The values below come from patent publication US9387215B2, “Animal feed including cationic cholesterol additive and related methods” (priority 2013, dated 2016).

With `CCCCCCCCOC(=O)CC[C@@H](C)[C@H]1CC[C@H]2[C@@H]3[C@H](OC(=O)CCN)C[C@@H]4C[C@H](OC(=O)CCN)CC[C@]4(C)[C@H]3C[C@H](OC(=O)CCN)[C@]12C` [CSA-44], the “Weight gain after challenge with C. difficile” value in the assay on C. difficile ATCC 9689 was “trend for the treated mice to have greater weight gain”. In assay [1] (chickens, 5 ppm in drinking water, versus tetracycline control), the “Feed conversion efficiency improved” value is on record as 8%. In assay [1] (chickens), the Harvest weight is on record as 4.22 lbs and the Weight gain is 0.120 lbs per day. The Death loss in assay [1] amounted to 535 birds. Besides, in the assay with C. difficile, the Survival rate result is given as “improved survival rate”. The “Increase in LAB concentration compared to control mice” value in assay [2] is reported as around 2 log.
With `CN(C)[C@@H]1C(O)=C(C(N)=O)C(=O)[C@@]2(O)C(O)=C3C(=O)c4c(O)cccc4[C@@](C)(O)[C@H]3C[C@@H]12` [tetracycline, reference compound], in assay [1] (chickens), the Harvest weight turned out to be 3.85 lbs and the Weight gain came out at 0.112 lbs per day. In assay [1], the Death loss is given as 1400-1500 birds.
